For twelve molecules, Ki results are on record in BindingDB's records for doi:10.1021/jm020889p (2002).

Molecules are shown by their SMILES.

Test [1] addresses Sigma non-opioid intracellular receptor 1 (Cavia porcellus) (UniProt Q60492). Nature of the test: Ability to displace [3H](+)-pentazocine from Sigma opioid receptor type 1 of guinea pig brain.
The target in test [2] is Sigma-2 receptor (TMEM97) (Rattus norvegicus). Description: Ability to displace [3H]ditolylguanidine in the presence of 100 nM (+)-pentazocine from Sigma opioid receptor type 2 of rat liver.

Sequence of Sigma non-opioid intracellular receptor 1 (Cavia porcellus) (Q60492 whole entry, looked up): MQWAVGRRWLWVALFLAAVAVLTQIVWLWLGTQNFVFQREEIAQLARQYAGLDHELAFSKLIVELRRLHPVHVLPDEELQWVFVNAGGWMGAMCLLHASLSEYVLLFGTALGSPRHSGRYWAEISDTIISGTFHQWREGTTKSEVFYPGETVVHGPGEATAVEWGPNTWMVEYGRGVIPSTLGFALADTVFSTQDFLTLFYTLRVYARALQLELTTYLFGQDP

As usually defined, the Ki is the dissociation constant of the complex between target and ligand, obtained from inhibition or displacement. Consider `CCOC(=O)CC1Cc2ccccc2C2(CCN(Cc3ccccc3)CC2)O1` (configuration not stated) [ethyl 2-[1'-benzylspiro[3,4-dihydro-1H-isochromene-1,4'-(hexahydropyridine)]-3-yl]acetate], for which the values for the Ki in test [1] and in test [2] were 183 nM and 22700 nM, respectively.

In test [1], `CNC(=O)CC1Cc2ccccc2C2(CCN(Cc3ccccc3)CC2)O1` (configuration not stated) [1N-methyl-2-[1'-benzylspiro[3,4-dihydro-1H-isochromene-1,4'-(hexahydropyridine)]-3-yl]acetamide] registered a Ki of 170 nM.

For `CCOC(=O)C1Cc2ccccc2C2(CCN(Cc3ccccc3)CC2)O1` (configuration not stated) [ethyl 1'-benzylspiro[3,4-dihydro-1H-isochromene-1,4'-(hexahydropyridine)]-3-carboxylate], the Ki came to 9.33 nM in test [1] and 10500 nM in test [2].

Consider `OCC1Cc2ccccc2C2(CCN(Cc3ccccc3)CC2)O1` (configuration not stated) [1'-benzylspiro[3,4-dihydro-1H-isochromene-1,4'-(hexahydropyridine)]-3-ylmethanol], for which the Ki worked out at 7.16 nM in test [1] and 2090 nM in test [2].

For `OCCC1Cc2ccccc2C2(CCN(Cc3ccccc3)CC2)O1` (configuration not stated) [2-[1'-benzylspiro[3,4-dihydro-1H-isochromene-1,4'-(hexahydropyridine)]-3-yl]-1-ethanol], the figures for the Ki in test [1] and in test [2] were 12.7 nM and 8460 nM, respectively.

As to `N#CCC1Cc2ccccc2C2(CCN(Cc3ccccc3)CC2)O1` (configuration not stated) [1'-benzylspiro[3,4-dihydro-1H-isochromene-1,4'-(hexahydropyridine)]-3-ylmethyl cyanide], the Ki in test [1] was 15.9 nM; in test [2] it was 4700 nM.

For the molecule `O=CCC1Cc2ccccc2C2(CCN(Cc3ccccc3)CC2)O1` (configuration not stated) [2-[1'-benzylspiro[3,4-dihydro-1H-isochromene-1,4'-(hexahydropyridine)]-3-yl]acetaldehyde], the Ki in test [1] is 55.1 nM; in test [2], 9910 nM.

As to `N#CCC1OC2(CCN(Cc3ccccc3)CC2)c2ccccc21` (configuration not stated) [1'-benzylspiro[1,3-dihydroisobenzofuran-1,4'-(hexahydropyridine)]-3-ylmethyl cyanide], the Ki in test [1] was 2.16 nM; in test [2], 1660 nM.

As for `N#CC1OC2(CCN(Cc3ccccc3)CC2)c2ccccc21` (configuration not stated) [1'-benzylspiro[1,3-dihydroisobenzofuran-1,4'-(hexahydropyridine)]-3-carbonitrile], the Ki in test [1] turned out to be 2.18 nM.

Regarding `CCOC(=O)C1OC2(CCN(Cc3ccccc3)CC2)c2ccccc21` (configuration not stated) [ethyl 1'-benzylspiro[1,3-dihydroisobenzofuran-1,4'-(hexahydropyridine)]-3-carboxylate], the Ki in test [1] stood at 8.95 nM; in test [2], 7130 nM.

As for `CNCCC1Cc2ccccc2C2(CCN(Cc3ccccc3)CC2)O1` (configuration not stated) [1N-methyl-2-[1'-benzylspiro[3,4-dihydro-1H-isochromene-1,4'-(hexahydropyridine)]-3-yl]-1-ethanamine], the figures for the Ki in test [1] and in test [2] were 148 nM and 4360 nM, respectively.

Consider `CCOC(=O)CC1OC2(CCN(Cc3ccccc3)CC2)c2ccccc21` (configuration not stated) [ethyl 2-[1'-benzylspiro[1,3-dihydroisobenzofuran-1,4'-(hexahydropyridine)]-3-yl]acetate], for which the Ki was determined as 15.1 nM in test [1] and 6770 nM in test [2].
